Patent US12540118B2, “Dendrene amide compound, bactericide and use thereof” (Jiangsu Flag Chemical Industry Co., Ltd., priority 2020, dated 2026)

Experiments:
succinate dehydrogenase = molecular target: T1, succinate dehydrogenase (Sus scrofa, UniProt A5GZW8+D0VWV4+Q007T0); test: Enzyme activity assay, succinate dehydrogenase (DCIP reduction); type: biochemical, porcine; conditions: read-out: Inhibitors (10 μM, SQR)
T1 construct: isolated from porcine hearts; from tissue; host or cells: porcine heart
Method: The inhibitory activities of control agents and target compounds on succinate dehydrogenase are determined.
The enzyme used in this test example is succinate dehydrogenase, which is isolated from porcine hearts.
The test method comprises the following steps: The total volume of the system is 1.8 ml, and the system contained 100 mM Na2HPO4—NaH2PO4 buffer (pH=7.4), 0.3 mM EDTA, 20 mM sodium succinate, 53 μM DCIP (2,6-dichloroindophenol sodium), and 2 nM succinate dehydrogenase. Thermostatic waterbath at 23° C. and magnetic stirring at 600 rpm. The decrease in the light absorption of the substrate DCIP is monitored at a wavelength of 600 nm and experimental points in a linear range are collected. Control substrate consumption not more than 5% of the experimental points. The molar extinction coefficient of DCIP is 21 mM^−1 cm^−1. And calculating the reduction yield of the DCIP in the reaction time, fitting a linear slope, and deducting the baseline slope to obtain the initial reaction speed.

Erysiphe graminis = Erysiphe graminis potting method; type: in vivo; conditions: Blumeria graminis, read-out: Erysiphe graminis control rating; for pest or weed control at 100 µg/mL: 100 mg/L
Method: The fungicidal activity of the control agents and target compounds are determined. The test and investigation method refers to SOP-SC-1116 Erysiphe graminis potting method in disinfectant rolls written by KANGZHUO and GUBAOGEN in “Standard operation specification for testing biological activity of pesticides”.

Sphaerotheca fuliginea = Sphaerotheca fuliginea potting method; type: in vivo; conditions: Podosphaera fuliginea; 100 mg/L; read-out: Sphaerotheca fuliginea control rating
Method: The fungicidal activity of the control agents and target compounds are determined. The test and investigation method refers to SOP-SC-1101 sphaerotheca fuliginea potting method in disinfectant rolls written by KANGZHUO and GUBAOGEN in “Standard operation specification for testing biological activity of pesticides”.

T1 sequence (Q0QF01 43-664 partner): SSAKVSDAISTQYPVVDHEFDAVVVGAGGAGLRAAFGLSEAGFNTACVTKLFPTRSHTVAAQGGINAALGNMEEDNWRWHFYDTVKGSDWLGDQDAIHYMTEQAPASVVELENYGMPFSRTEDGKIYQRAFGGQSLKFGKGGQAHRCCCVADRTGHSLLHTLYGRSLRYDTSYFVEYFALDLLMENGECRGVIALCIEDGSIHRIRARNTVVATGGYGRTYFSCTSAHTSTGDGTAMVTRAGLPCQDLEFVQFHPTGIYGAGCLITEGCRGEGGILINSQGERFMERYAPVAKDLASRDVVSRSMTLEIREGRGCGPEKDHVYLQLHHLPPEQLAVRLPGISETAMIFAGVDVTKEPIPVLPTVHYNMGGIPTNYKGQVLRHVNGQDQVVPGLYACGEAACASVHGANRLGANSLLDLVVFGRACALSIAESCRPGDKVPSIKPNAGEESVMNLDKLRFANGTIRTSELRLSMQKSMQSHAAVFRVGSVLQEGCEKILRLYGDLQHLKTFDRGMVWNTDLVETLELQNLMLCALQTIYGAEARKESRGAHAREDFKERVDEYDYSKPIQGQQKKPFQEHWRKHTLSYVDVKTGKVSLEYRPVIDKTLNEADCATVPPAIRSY
T1 sequence (Q007T0 29-280): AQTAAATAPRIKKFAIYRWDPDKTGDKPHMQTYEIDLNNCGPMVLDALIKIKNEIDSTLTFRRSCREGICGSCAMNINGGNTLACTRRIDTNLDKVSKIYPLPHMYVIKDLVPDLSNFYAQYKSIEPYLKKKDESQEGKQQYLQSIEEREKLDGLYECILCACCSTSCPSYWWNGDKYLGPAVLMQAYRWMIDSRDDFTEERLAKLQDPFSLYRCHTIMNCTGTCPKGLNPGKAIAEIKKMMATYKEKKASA
T1 sequence (D0VWV4 30-169): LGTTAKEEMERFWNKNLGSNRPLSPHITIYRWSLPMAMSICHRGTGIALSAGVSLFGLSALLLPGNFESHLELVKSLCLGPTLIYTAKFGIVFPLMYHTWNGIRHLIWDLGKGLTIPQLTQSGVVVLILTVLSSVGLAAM
T1 sequence (A5GZW8 57-159 limits assumed): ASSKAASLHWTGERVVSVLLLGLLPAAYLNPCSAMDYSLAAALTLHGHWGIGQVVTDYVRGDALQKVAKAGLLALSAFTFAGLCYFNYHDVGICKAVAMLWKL

SMILES	inhibition at 10 µM (succinate dehydrogenase) [%]	pest or weed control at 100 µg/mL (Erysiphe graminis) [%]	pest or weed control at 100 µg/mL (Sphaerotheca fuliginea) [%]	pest or weed control at 6.25 µg/mL (Erysiphe graminis; 6.25 mg/L) [%]	pest or weed control at 25 µg/mL (Erysiphe graminis; 25 mg/L) [%]
C=C(c1cccc(C(F)(F)F)c1Cl)C(C)N(C(=O)c1c(C(F)F)nn(C)c1F)C1CC1 (centres unmarked) [Compound 101]	> 90	80 to 100	80 to 100	–	–
C=C(CN(C(=O)c1c(C(F)F)nn(C)c1F)C1CC1)c1cc(F)c(Cl)cc1Cl [Compound 13]	> 90	80 to 100	80 to 100	–	–
Cc1ccc(C)c(C(CN(C(=O)c2c(C(F)F)nn(C)c2F)C2CC2)=C(Cl)Cl)c1 [Compound 141]	> 90	80 to 100	80 to 100	–	–
C=C(CN(C(=O)c1c(C(F)F)nn(C)c1F)C1CC1)c1c(Br)cccc1Br [Compound 30]	> 90	80 to 100	80 to 100	–	–
Cn1nc(C(F)F)c(C(=O)N(CC(=C(Cl)Cl)c2ccccc2F)C2CC2)c1F [Compound 115]	> 90	80 to 100	80 to 100	–	–
C=C(CN(C(=O)c1c(C(F)F)nn(C)c1F)C1CC1)c1cc(Cl)ccc1F [Compound 44]	> 90	80 to 100	80 to 100	–	–
C=C(c1c(Br)cc(Br)cc1Br)C(C)N(C(=O)c1c(C(F)F)nn(C)c1F)C1CC1 (centres unmarked) [Compound 85]	> 90	80 to 100	80 to 100	–	–
Cn1nc(C(F)F)c(C(=O)N(CC(=C(Cl)Cl)c2c(Br)cccc2Br)C2CC2)c1F [Compound 136]	> 90	80 to 100	80 to 100	–	–
C=C(CN(C(=O)c1c(C(F)F)nn(C)c1F)C1CC1)c1cc(Cl)ccc1Cl [Compound 14]	> 90	80 to 100	80 to 100	–	–
C=C(c1cccc(S(=O)(=O)CC)c1)C(C)N(C(=O)c1c(C(F)F)nn(C)c1F)C1CC1 (centres unmarked) [Compound 108]	> 90	80 to 100	80 to 100	–	–
C=C(c1c(Cl)cccc1Cl)C(C)N(C(=O)c1c(C(F)F)nn(C)c1F)C1CC1 (centres unmarked) [Compound 73]	> 90	80 to 100	80 to 100	–	–
Cc1ccc(C(=C(Cl)Cl)C(C)N(C(=O)c2c(C(F)F)nn(C)c2F)C2CC2)c(C)c1 (centres unmarked) [Compound 193]	> 90	80 to 100	80 to 100	–	–
C=C(CN(C(=O)c1c(C(F)F)nn(C)c1F)C1CC1)c1c(C)cccc1C [Compound 35]	> 90	80 to 100	80 to 100	70 to 80	80 to 100
C=C(CN(C(=O)c1c(C(F)F)nn(C)c1F)C1CC1)c1ccccc1 [Compound 9]	> 90	80 to 100	< 70	–	–
C=C(CN(C(=O)c1c(C(F)F)nn(C)c1F)C1CC1)c1cc(Br)ccc1Br [Compound 29]	> 90	80 to 100	80 to 100	–	–
Cc1ccc(C(C)C)cc1C(CN(C(=O)c1c(C(F)F)nn(C)c1F)C1CC1)=C(Cl)Cl [Compound 144]	> 90	80 to 100	80 to 100	–	–
C=C(CN(C(=O)c1c(C(F)F)nn(C)c1F)C1CC1)c1ccccc1Cl [Compound 7]	> 90	80 to 100	80 to 100	–	–
